Biological target: T1, porcine pancreatic α-amylase (PPA) (Sus scrofa, UniProt P00690)
T1 construct: gene AMY2; native pancreatic enzyme
T1 sequence (P00690 16-511): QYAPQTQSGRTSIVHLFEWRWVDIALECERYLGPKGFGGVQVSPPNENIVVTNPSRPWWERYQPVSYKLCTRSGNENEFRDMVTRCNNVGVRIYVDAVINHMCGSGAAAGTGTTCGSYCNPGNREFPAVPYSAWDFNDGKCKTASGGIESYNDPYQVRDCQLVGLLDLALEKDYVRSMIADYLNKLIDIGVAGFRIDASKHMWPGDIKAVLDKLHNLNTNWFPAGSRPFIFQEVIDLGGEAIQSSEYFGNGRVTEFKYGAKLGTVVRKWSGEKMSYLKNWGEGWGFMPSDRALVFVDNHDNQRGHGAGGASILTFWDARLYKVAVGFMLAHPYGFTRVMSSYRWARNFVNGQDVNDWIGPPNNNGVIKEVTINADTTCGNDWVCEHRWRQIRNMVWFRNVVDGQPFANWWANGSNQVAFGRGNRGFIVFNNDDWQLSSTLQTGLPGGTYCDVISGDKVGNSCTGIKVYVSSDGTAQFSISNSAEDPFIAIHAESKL
Assay: starch-iodine colorimetric assay, […] nm
Type: biochemical
Settings: read-out: α-Amylase IC50 (mg/mL) (converted)

- IC50: 5.93 mM
SMILES: CCCCCCCCCCCCCCCC(=O)O [palmitic acid]

Reference: paper PMC7151626, “Antioxidant and α-amylase Inhibitory Activities and Phytocompounds of Clausena indica Fruits” (Medicines, 2020)
